Results published in US8034940B2, “Modulators of glucocorticoid receptor, AP-1, and/or NF-κB activity and use thereof” (Bristol-Myers Squibb Company, priority 2006, dated 2011).
pKi: −log10 of the molar value.

Key:
[1] = biological target: T1, human full-length glucocorticoid receptor (Homo sapiens, UniProt P04150); experiment: Glucocorticoid Receptor Binding Assay (II), fluorescence polarization, FITC-dexamethasone; parameters: recombinantly expressed human full-length glucocorticoid receptor; purchased PanVera Co., Madison P2816; details: GR Binding Assay (II); read-out: GR (Ki, nM) (GR Binding Assay (II))
T1 sequence (P04150 1-777): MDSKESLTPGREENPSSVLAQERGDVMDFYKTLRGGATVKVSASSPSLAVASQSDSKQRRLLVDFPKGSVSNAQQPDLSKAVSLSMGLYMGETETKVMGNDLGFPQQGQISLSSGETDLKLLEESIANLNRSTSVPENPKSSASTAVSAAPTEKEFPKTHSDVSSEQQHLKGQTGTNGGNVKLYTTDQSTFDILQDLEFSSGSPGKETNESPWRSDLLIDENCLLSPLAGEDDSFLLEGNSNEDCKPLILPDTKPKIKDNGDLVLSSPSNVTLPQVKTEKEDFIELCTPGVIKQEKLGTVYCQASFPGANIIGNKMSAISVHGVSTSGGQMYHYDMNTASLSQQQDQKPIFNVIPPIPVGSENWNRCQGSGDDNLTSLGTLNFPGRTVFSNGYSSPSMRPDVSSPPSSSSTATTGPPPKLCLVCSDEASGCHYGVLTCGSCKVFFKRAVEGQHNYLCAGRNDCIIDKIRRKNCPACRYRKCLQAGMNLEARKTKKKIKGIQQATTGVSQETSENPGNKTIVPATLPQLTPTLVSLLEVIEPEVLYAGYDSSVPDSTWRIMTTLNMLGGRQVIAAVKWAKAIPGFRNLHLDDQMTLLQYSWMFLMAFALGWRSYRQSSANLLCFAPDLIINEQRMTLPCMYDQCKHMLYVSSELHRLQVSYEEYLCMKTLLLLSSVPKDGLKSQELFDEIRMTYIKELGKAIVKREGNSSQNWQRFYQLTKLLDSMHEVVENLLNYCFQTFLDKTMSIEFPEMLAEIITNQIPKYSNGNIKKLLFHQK
Procedure: Glucocorticoid Receptor Binding Assay (II)^b
In order to measure the binding of compounds on the glucocorticoid receptor a commercially available kit was used (Glucocorticoid receptor competitor assay kit, PanVera Co., Madison, W1, P2816). Briefly, a cell lysate containing recombinantly expressed human full-length glucocorticoid receptor was mixed with a fluorescently labeled glucocorticoid (4 nM FITC-dexamethasone) plus or minus test molecule. After one hour at room temperature, the fluorescence polarization (FP) of the samples were measured. […] Test molecules were analyzed in the concentration range from 0.1 nM to 40 μM.

[2] = biological target: T1, human full-length glucocorticoid receptor; experiment: Glucocorticoid Receptor Binding Assay (I), fluorescence polarization, Fluormone GS Red; parameters: purified human recombinant full-length glucocorticoid receptor; purchased Invitrogen Part #2893; details: for Ki: GR Binding Assay (I), read-out: GR (Ki, nM) (GR Binding Assay (I))
Procedure: Glucocorticoid Receptor Binding Assay (I)^a
Briefly, purified human recombinant full-length glucocorticoid receptor (2 nM) was mixed with fluorescently labeled glucocorticoid (1 nM Fluormone GS Red) in the presence or absence of test compound. After two hour incubation at room temperature in the dark, the fluorescence polarization (FP) of the samples was measured. […] Test compounds were analyzed in the concentration range from 8.5E-05 μM to 5 μM.

[3] = tested on: AP-1 induced transcriptional activity; experiment: Cellular Transrepressional Assay (AP-1 luciferase reporter, PMA-activated A549 cells); assay type: cell-based; details: Homo sapiens, A549, 7 h, maximum inhibition, Cellular Transrepression Assay; read-out: AP-1 Max % inh (Cellular Transrepression Assay)
Method in brief: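 A549 cells stably carrying a 7× AP-1–luciferase reporter were stimulated with 10 ng/ml PMA with or without compound (0.1 nM–40 μM) for 7 h. Luminescence read 10 min after luciferase reagent; EC50 fitted from % decrease versus PMA-only signal.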

Compound: COc1ccc(CNc2ccc3c(n2)Oc2ccccc2[C@H]3C(C)(C)C(=O)Nc2nncs2)cc1 (racemic) [Example 136]
- Ki [1]: 141 nM

Compound: CC(C)(C(=O)Nc1nccs1)C1c2ccccc2Sc2ccccc21 [Example 9]
- Ki [1]: 154 nM

Compound: CC(C)(C(=O)Nc1nccs1)C1c2ccccc2-c2ccc(O)cc21 (stereo not drawn) [Example 22]
- Ki [1]: 1640 nM

Compound: CCOC(=O)c1csc(NC(=O)C(C)(C)C2c3ccccc3CCc3ccccc32)n1 [Example 23]
- Ki [1]: 445 nM

Compound: CC(C)(C(=O)Nc1nccs1)C1c2ccccc2CCc2ccccc21 [Example 25]
- Ki [1]: 41.1 nM

Compound: CC(C)CCN(C)C(=O)c1ccc(-c2ccc3c(n2)Oc2ccccc2[C@@H]3C(C)(C)C(=O)Nc2nncs2)cc1 [Example 270]
- Ki [2]: 20.9 nM
- Emax [3]: 28%

Compound: CC1CN(C(=O)c2ccc(-c3ccc4c(n3)Oc3ccccc3[C@@H]4C(C)(C)C(=O)Nc3nncs3)cc2)CC(C)O1 (stereo partly drawn) [Example 273]
- Ki [2]: 19.9 nM
- Emax [3]: 21%

Compound: CC(C)(C(=O)Nc1nncs1)[C@H]1c2ccccc2Oc2nc(-c3ccc(C(=O)N4CCN(CCO)CC4)cc3)ccc21 [Example 275]
- Ki [2]: 2.6 nM
- Emax [3]: 26%

Compound: CN(CCc1ccccc1)C(=O)c1ccc(-c2ccc3c(n2)Oc2ccccc2[C@@H]3C(C)(C)C(=O)Nc2nncs2)cc1 [Example 276]
- Ki [2]: 4.05 nM
- Emax [3]: 27.2%

Compound: CC(=O)N1CCCN(C(=O)c2ccc(-c3ccc4c(n3)Oc3ccccc3[C@@H]4C(C)(C)C(=O)Nc3nncs3)cc2)CC1 [Example 277]
- Ki [2]: 81.3 nM
- Emax [3]: 24.5%

Compound: CC(C)(C(=O)Nc1nncs1)[C@H]1c2ccccc2Oc2nc(-c3ccc(C(=O)N4CCc5ccccc5C4)cc3)ccc21 [Example 280]
- Ki [2]: 10.8 nM
- Emax [3]: 33.5%

Compound: CCS(=O)(=O)N1CCN(C(=O)c2ccc(-c3ccc4c(n3)Oc3ccccc3[C@@H]4C(C)(C)C(=O)Nc3nncs3)cc2)CC1 [Example 283]
- Ki [2]: 9.21 nM
- Emax [3]: 24.6%

Compound: COC[C@H]1CCCN1C(=O)c1ccc(-c2ccc3c(n2)Oc2ccccc2[C@@H]3C(C)(C)C(=O)Nc2nncs2)cc1 [Example 285]
- Ki [2]: 5.84 nM
- Emax [3]: 45.3%

Compound: CN(CCS(C)(=O)=O)C(=O)c1ccc(-c2ccc3c(n2)Oc2ccccc2[C@@H]3C(C)(C)C(=O)Nc2nncs2)cc1 [Example 286]
- Ki [2]: 12.2 nM
- Emax [3]: 49.8%

Compound: CC(C)(C(=O)Nc1nncs1)[C@H]1c2ccccc2Oc2nc(-c3ccc(C(=O)N4CCC(S(C)(=O)=O)C4)cc3)ccc21 (stereo partly drawn) [Example 288]
- Ki [2]: 13.8 nM
- Emax [3]: 35.5%

Compound: COC1CN(C(=O)c2ccc(-c3ccc4c(n3)Oc3ccccc3[C@@H]4C(C)(C)C(=O)Nc3nncs3)cc2)C1 [Example 289]
- Ki [2]: 20 nM
- Emax [3]: 24.3%

Compound: CC(C)(C(=O)Nc1nncs1)[C@H]1c2ccccc2Oc2nc(-c3ccc(C(=O)N4CCC(C(F)(F)F)CC4)cc3)ccc21 [Example 290]
- Ki [2]: 20.4 nM
- Emax [3]: 28.8%

Compound: COC(=O)[C@H]1CCCCN1C(=O)c1ccc(-c2ccc3c(n2)Oc2ccccc2[C@@H]3C(C)(C)C(=O)Nc2nncs2)cc1 [Example 291]
- Ki [2]: 44 nM
- Emax [3]: 27%

Compound: COC(=O)CN(C)C(=O)c1ccc(-c2ccc3c(n2)Oc2ccccc2[C@@H]3C(C)(C)C(=O)Nc2nncs2)cc1 [Example 293]
- Ki [2]: 10.4 nM
- Emax [3]: 25.4%

Compound: CN(CCO)C(=O)c1ccc(-c2ccc3c(n2)Oc2ccccc2[C@@H]3C(C)(C)C(=O)Nc2nncs2)cc1 [Example 294]
- Ki [2]: 29.3 nM
- Emax [3]: 59.4%

Compound: COCCN(C)C(=O)c1ccc(-c2ccc3c(n2)Oc2ccccc2[C@@H]3C(C)(C)C(=O)Nc2nncs2)cc1 [Example 295]
- Ki [2]: 38.7 nM
- Emax [3]: 24.4%

Compound: CC(C)(C(=O)Nc1nncs1)[C@H]1c2ccccc2Oc2nc(-c3ccc(C(=O)N4CCCN(Cc5ccccc5)CC4)cc3)ccc21 [Example 298]
- Ki [2]: 242 nM
- Emax [3]: 25.4%

Compound: CN(Cc1ccncc1)C(=O)c1ccc(-c2ccc3c(n2)Oc2ccccc2[C@@H]3C(C)(C)C(=O)Nc2nncs2)cc1 [Example 301]
- Ki [2]: 20.3 nM
- Emax [3]: 28.6%

Compound: CC(C)(C(=O)Nc1nncs1)[C@H]1c2ccccc2Oc2nc(-c3ccc(C(=O)N4CCCN(CCO)CC4)cc3)ccc21 [Example 303]
- Ki [2]: 278 nM
- Emax [3]: 28.6%

Compound: CC1CC(C)CN(C(=O)c2ccc(-c3ccc4c(n3)Oc3ccccc3[C@@H]4C(C)(C)C(=O)Nc3nncs3)cc2)C1 (stereo partly drawn) [Example 305]
- Ki [2]: 24.7 nM
- Emax [3]: 38.3%

Compound: CC(=O)N[C@@H]1CCN(C(=O)c2ccc(-c3ccc4c(n3)Oc3ccccc3[C@@H]4C(C)(C)C(=O)Nc3nncs3)cc2)C1 [Example 306]
- Ki [2]: 9.85 nM
- Emax [3]: 43.5%

Compound: CN(C)[C@@H]1CCN(C(=O)c2ccc(-c3ccc4c(n3)Oc3ccccc3[C@@H]4C(C)(C)C(=O)Nc3nncs3)cc2)C1 [Example 307]
- Ki [2]: 67.5 nM
- Emax [3]: 37.1%

Compound: CC(C)(C(=O)Nc1nncs1)[C@H]1c2ccccc2Oc2nc(-c3ccc(C(=O)NCc4ccccc4)cc3)ccc21 [Example 349]
- Ki [2]: 5.88 nM
- Emax [3]: 31.7%

Compound: CC(C)(C(=O)Nc1nncs1)[C@H]1c2ccccc2Oc2nc(-c3ccc(C(=O)NCCc4ccccc4)cc3)ccc21 [Example 354]
- Ki [2]: 20.1 nM
- Emax [3]: 28.9%

Compound: CC(C)(C(=O)Nc1nncs1)[C@H]1c2ccccc2Oc2nc(-c3ccc(C(=O)NCCO)cc3)ccc21 [Example 357]
- Ki [2]: 31.4 nM
- Emax [3]: 29.6%

Compound: CC(=O)NC(C)(C)c1ccc(-c2ccc3c(n2)Oc2ccccc2[C@@H]3C(C)(C)C(=O)Nc2nncs2)cc1 [Example 415]
- Ki [2]: 64.1 nM

Compound: CC(C)(N)c1ccc(-c2ccc3c(n2)Oc2ccccc2[C@@H]3C(C)(C)C(=O)Nc2nncs2)cc1 [Example 416]
- Ki [2]: 94.5 nM

Compound: CCCCCCc1ccc2c(n1)Oc1ccccc1[C@@H]2C(C)(C)C(=O)Nc1nncs1 [Example 437]
- Ki [2]: 11.1 nM

Compound: CN(C)C(=O)c1ccc(-c2ccc3c(n2)Oc2ccccc2C3C(C)(C)C(=O)Nc2ccccn2)cc1 (stereo not drawn) [Example 438]
- Ki [2]: 53.1 nM

Compound: CN(C)C(=O)c1ccc(-c2ccc3c(n2)Oc2ccccc2C3C(C)(C)C(=O)Nc2ncn[nH]2)cc1 (stereo not drawn) [Example 439]
- Ki [2]: 65.8 nM

Compound: CN(C)C(=O)c1ccc(-c2ccc3c(n2)Oc2ccccc2C3C(C)(C)C(=O)Nc2ncc[nH]2)cc1 (stereo not drawn) [Example 440]
- Ki [2]: 21 nM

Compound: CC(C)(C(=O)Nc1nncs1)[C@H]1c2ccccc2Oc2nc(-c3ccc4c(c3)CCC4=O)ccc21 [Example 451]
- Ki [2]: 5.57 nM

Compound: CN(C)C(=O)n1cc(-c2ccc3c(n2)Oc2ccccc2[C@@H]3C(C)(C)C(=O)Nc2nncs2)cn1 [Example 453]
- Ki [2]: 17.6 nM

Compound: CN(C)C(=O)c1ccc(-c2ccc3c(n2)Oc2ccccc2[C@@H]3C(C)(C)C(=O)Nc2nncs2)s1 [Example 462]
- Ki [2]: 3.78 nM

Compound: Cc1nnc(NC(=O)C(C)(C)[C@H]2c3ccccc3Oc3nc(-c4cc(F)c(C(=O)N(C)C)c(F)c4)ccc32)s1 [Example 469]
- Ki [2]: 49.8 nM

Compound: Cc1nnc(NC(=O)C(C)(C)[C@H]2c3ccccc3Oc3nc(-c4ccc(C(=O)N5CCC(=O)CC5)cc4)ccc32)s1 [Example 475]
- pKi [2]: 7.74

Compound: Cc1nnc(NC(=O)C(C)(C)[C@H]2c3ccccc3Oc3nc(-c4ccc(OC(C)C)c(Cl)c4)ccc32)s1 [Example 476]
- Ki [2]: 16.4 nM

Compound: CN(C)C(=O)c1ccc(-c2ccc3c(n2)Oc2ccccc2C3C2(C(=O)Nc3nncs3)CCOCC2)cc1 (stereo not drawn) [Example 483]
- Ki [2]: 426 nM

Compound: CN(C)C(=O)c1ccc(-c2ccc3c(n2)Oc2ccccc2C3C2(C(=O)Nc3nncs3)CC2)cc1 (stereo not drawn) [Example 489]
- Ki [2]: 144 nM

Compound: CN(C)C(=O)c1ccc(-c2ccc3c(c2)Oc2ncccc2C3C(C)(C)C(=O)Nc2nncs2)cc1 (stereo not drawn) [Example 490]
- Ki [2]: 14.8 nM

Compound: CN(C)C(=O)c1ccc(-c2ccc3c(n2)Oc2ccccc2C3CC(=O)Nc2nncs2)cc1 (stereo not drawn) [Example 491]
- Ki [2]: > 1150 nM

Compound: Cc1nnc(NC(=O)C(C)(C)C2c3ccccc3Oc3cc(-c4ccc(C(=O)N5CCOCC5)cc4)ncc32)s1 (stereo not drawn) [Example 493]
- Ki [2]: 109 nM
